System: angiogenesis genes in dermal microvascular endothelial cells
Assay: Real time RT-PCR of angiogenesis gene expression during endothelial tube formation
Assay type: cell-based
Settings: 1 μM SM, 24 hours
Description: For gene expression studies, three independent experiments were run for each SM tested. 90.000 cells/well (6 wells/treatment) of dermal microvascular endothelial cells (Lonza, Walkersville, Md.) were seeded on polymerized GELTREX™ gel matrix (Invitrogen, Carlsbad, Calif.) in 24 well plates. Wells were immediately treated with the same volume of 1 μM SM or PBS. After 24 hours incubation at 37° C. and 5% CO2, cells were extracted using Cell Recovery Solution (BD Biosciences, San Jose, Calif., Cat. #354253). Total RNA was extracted with the RNeasy Mini Kit (Qiagen, Valencia, Calif., Cat. #74104), and retrotranscribed using […]® First-Strand reverse transcriptase (Invitrogen, Carlsbad, Calif., Cat. #11904-018). The real time PCR reactions were performed in an Opticon 2 cycler (MJ Research, Waltham, Mass.). Amplification was performed in a final volume of 25 μl, containing 2 μl cDNA (1:10 dilution from the reversed transcribed reaction) and 2 μl of primer mixture (10 μM each of forward and reverse primers). Samples were amplified as follows: after initial denaturation at 95 C for 2 minutes, reactions were run for 46 cycles at 95° C. for 30 seconds, 60° C. for 30 seconds, and 72° C. for 45 seconds. Fluorescence was measured in every cycle and a melting curve was run after the PCR by increasing temperature from 50 to 96° C. (in 0.5° C. increments). A defined single peak was obtained for all amplicons, thus confirming the specificity of the amplification.
The genes that were monitored were selected based on their relevance to the angiogenesis process. All experiments were done in triplicate. The results are shown in the volcano plots of FIG. 17. Log 2 fold-change is presented in the X-axis and log 10 P value in the Y-axis.

CCC(=O)OCN1C(=O)C=CC1=O [compound 19630]
Log2 fold-change of gene expression: 1839: −1.2
Log2 fold-change of gene expression: 4247: 1.0
Log2 fold-change of gene expression: 5569: −3.0
Log2 fold-change of gene expression: 8131: 0.6
Log2 fold-change of gene expression: 9569: −2.3
Log2 fold-change of gene expression: 10988: 2.5
Log2 fold-change of gene expression: 23001: 0.4
Log2 fold-change of gene expression: 55332: −1.1
Log2 fold-change of gene expression: 57722: 0.2
Log2 fold-change of gene expression: 58488: 1.2
Log2 fold-change of gene expression: 90780: −1.2
Log2 fold-change of gene expression: 134265: −1.6
Log2 fold-change of gene expression: AKT1: 0.1
Log2 fold-change of gene expression: ANGPT1: −0.5
Log2 fold-change of gene expression: ANGPT2: −1.8
Log2 fold-change of gene expression: ANGPTL3: −5.0
Log2 fold-change of gene expression: ANGPTL4: −0.2
Log2 fold-change of gene expression: ANPEP: −0.4
Log2 fold-change of gene expression: ANTXR1: −0.3
Log2 fold-change of gene expression: APOE: 3.3
Log2 fold-change of gene expression: ARHGEF1: 0.2
Log2 fold-change of gene expression: Acvrl1: −0.6
Log2 fold-change of gene expression: Adcy4: 0.0
Log2 fold-change of gene expression: BAL1: −0.9
Log2 fold-change of gene expression: BMP1: 0.5
Log2 fold-change of gene expression: C1orf54: −4.8
Log2 fold-change of gene expression: CALD1: 1.7
Log2 fold-change of gene expression: CCL2: 2.3
Log2 fold-change of gene expression: CCL11: −0.3
Log2 fold-change of gene expression: CD248: 1.3
Log2 fold-change of gene expression: CDH5: −0.2
Log2 fold-change of gene expression: CENTD3: 0.6
Log2 fold-change of gene expression: CLIC1: −0.1
Log2 fold-change of gene expression: COL4A3: 0.1
Log2 fold-change of gene expression: COL18A1: 0.4
Log2 fold-change of gene expression: COMT: −0.7
Log2 fold-change of gene expression: CST4: 0.8
Log2 fold-change of gene expression: CTTNBP2NL: −2.3
Log2 fold-change of gene expression: CXCL3: 12.1
Log2 fold-change of gene expression: CXCL5: 4.8
Log2 fold-change of gene expression: CXCL6: −0.5
Log2 fold-change of gene expression: CXCL9: −1.0
Log2 fold-change of gene expression: CXCL10: 4.7
Log2 fold-change of gene expression: Calcr1: −4.3
Log2 fold-change of gene expression: Caskin2: −2.8
Log2 fold-change of gene expression: Ccbp2: −0.1
Log2 fold-change of gene expression: Cldn5: 0.6
Log2 fold-change of gene expression: DGKG: 5.4
Log2 fold-change of gene expression: DKK3: −1.5
Log2 fold-change of gene expression: DLL4: −4.5
Log2 fold-change of gene expression: DUT: −0.8
Log2 fold-change of gene expression: EFNA1: 3.7
Log2 fold-change of gene expression: EFNA3: −0.4
Log2 fold-change of gene expression: EFNB2: −1.9
Log2 fold-change of gene expression: EGF: −1.0
Log2 fold-change of gene expression: ENG: 0.1
Log2 fold-change of gene expression: EPHB4: −0.8
Log2 fold-change of gene expression: EREG: 7.6
Log2 fold-change of gene expression: ESAM1: −3.3
Log2 fold-change of gene expression: EXTL3: 1.0
Log2 fold-change of gene expression: Egf17: −3.8
Log2 fold-change of gene expression: Ehd4: −1.1
Log2 fold-change of gene expression: Entpd1: −4.9
Log2 fold-change of gene expression: Epas1: 1.8
Log2 fold-change of gene expression: EphB1: 0.0
Log2 fold-change of gene expression: Erg: −1.6
Log2 fold-change of gene expression: FGF1: −3.0
Log2 fold-change of gene expression: FGF2: 1.7
Log2 fold-change of gene expression: FGFR3: −0.2
Log2 fold-change of gene expression: FIGF: −3.2
Log2 fold-change of gene expression: FLT1: −2.1
Log2 fold-change of gene expression: Fgd5: −1.6
Log2 fold-change of gene expression: GPCR124: −1.7
Log2 fold-change of gene expression: GRRP1: 0.0
Log2 fold-change of gene expression: Grp116: −1.9
Log2 fold-change of gene expression: HAND2: −0.5
Log2 fold-change of gene expression: HGF: −0.3
Log2 fold-change of gene expression: HIF1A: −1.7
Log2 fold-change of gene expression: HPSE: 0.6
Log2 fold-change of gene expression: Hspa12b: −4.6
Log2 fold-change of gene expression: ID1: 1.0
Log2 fold-change of gene expression: ID3: 0.4
Log2 fold-change of gene expression: IFNA1: 0.4
Log2 fold-change of gene expression: IFNB1: −0.4
Log2 fold-change of gene expression: IFNG: 4.7
Log2 fold-change of gene expression: IGF1: 3.6
Log2 fold-change of gene expression: IL1B: 0.2
Log2 fold-change of gene expression: IL6: 3.5
Log2 fold-change of gene expression: IL8: 3.0
Log2 fold-change of gene expression: ITGAV: −0.3
Log2 fold-change of gene expression: ITGB3: −0.9
Log2 fold-change of gene expression: Icam1: 0.1
Log2 fold-change of gene expression: Icam2: 0.4
Log2 fold-change of gene expression: JAG1: −1.2
Log2 fold-change of gene expression: KDR: −2.7
Log2 fold-change of gene expression: Kifc1: 3.4
Log2 fold-change of gene expression: LAMAS5: −0.8
Log2 fold-change of gene expression: LECT1: −0.4
Log2 fold-change of gene expression: LEP: −4.5
Log2 fold-change of gene expression: Lasts2: −0.1
Log2 fold-change of gene expression: Lrrk1: −2.9
Log2 fold-change of gene expression: MDK: −1.1
Log2 fold-change of gene expression: MMP2: 0.5
Log2 fold-change of gene expression: MMP9: 0.3
Log2 fold-change of gene expression: MMP11: 0.8
Log2 fold-change of gene expression: MRC2: 1.6
Log2 fold-change of gene expression: Mmm2: −2.4
Log2 fold-change of gene expression: Myo1b: −2.3
Log2 fold-change of gene expression: NID1: −2.6
Log2 fold-change of gene expression: NM023516: 0.5
Log2 fold-change of gene expression: NRP1: −0.5
Log2 fold-change of gene expression: NRP2: −2.2
Log2 fold-change of gene expression: Notch4: −1.8
Log2 fold-change of gene expression: Npr3: 8.3
Log2 fold-change of gene expression: PALD: −1.1
Log2 fold-change of gene expression: PDCD2: 0.5
Log2 fold-change of gene expression: PDGFA: −0.7
Log2 fold-change of gene expression: PECAM1: −2.6
Log2 fold-change of gene expression: PGF: −2.4
Log2 fold-change of gene expression: PLAU: 0.1
Log2 fold-change of gene expression: PLG: −2.7
Log2 fold-change of gene expression: PNMT: 0.7
Log2 fold-change of gene expression: PROK2: −1.3
Log2 fold-change of gene expression: PTGS1: −2.4
Log2 fold-change of gene expression: PTPRCAP: 0.4
Log2 fold-change of gene expression: Pltp: 0.9
Log2 fold-change of gene expression: Ptprb: −1.6
Log2 fold-change of gene expression: Ptprm: −1.2
Log2 fold-change of gene expression: RAMP2: −4.8
Log2 fold-change of gene expression: RASD2: 0.9
Log2 fold-change of gene expression: Rasip1: 3.1
Log2 fold-change of gene expression: S1PR1: −2.6
Log2 fold-change of gene expression: SERPINF1: −0.8
Log2 fold-change of gene expression: SPHK1: −0.5
Log2 fold-change of gene expression: STAB1: −1.0
Log2 fold-change of gene expression: Sdc4: 2.2
Log2 fold-change of gene expression: Sdpr: −0.1
Log2 fold-change of gene expression: Slc43a3: −0.8
Log2 fold-change of gene expression: Slco2a1: −2.5
Log2 fold-change of gene expression: TEK: −0.4
Log2 fold-change of gene expression: TGFA: 1.1
Log2 fold-change of gene expression: TGFB1: −1.3
Log2 fold-change of gene expression: TGFB2: −0.5
Log2 fold-change of gene expression: TGFBR1: −0.1
Log2 fold-change of gene expression: THBS1: 0.5
Log2 fold-change of gene expression: THBS2: −0.6
Log2 fold-change of gene expression: THY1: −11.3
Log2 fold-change of gene expression: TIMP1: −0.8
Log2 fold-change of gene expression: TIMP2: −0.9
Log2 fold-change of gene expression: TIMP3: 0.7
Log2 fold-change of gene expression: TNF: −0.6
Log2 fold-change of gene expression: TNS1: 0.6
Log2 fold-change of gene expression: TNS3: −1.8
Log2 fold-change of gene expression: TRA2B: 1.5
Log2 fold-change of gene expression: TYMP: 0.3
Log2 fold-change of gene expression: VEGFA: 4.2
Log2 fold-change of gene expression: VEGFC: 0.1
Log2 fold-change of gene expression: VGLL4: −1.3
Log2 fold-change of gene expression: Vwf: −1.8
Log2 fold-change of gene expression: copa: 0.4
Log2 fold-change of gene expression: itbp4: −0.8
Log2 fold-change of gene expression: ralb: 0.1
Log2 fold-change of gene expression: stard9: −0.7
Log2 fold-change of gene expression: B2M (1st listing (r49)): 0.0
Log2 fold-change of gene expression: HPRT1 (1st listing (r50)): 0.8
Log2 fold-change of gene expression: RPL13A (1st listing (r51)): −0.2
Log2 fold-change of gene expression: GADPH (1st listing (r52)): 0.1
Log2 fold-change of gene expression: ACTB (1st listing (r53)): 0.1
Log2 fold-change of gene expression: PLXDC1 (1st listing (r74)): −4.0
Log2 fold-change of gene expression: TNFAIP2 (1st listing (r91)): 0.2
Log2 fold-change of gene expression: Robo4 (1st listing (r95)): 0.1
Log2 fold-change of gene expression: 151516 (1st listing (r134)): 1.2
Log2 fold-change of gene expression: TNFAIP2 (2nd listing (r92)): −0.4
Log2 fold-change of gene expression: B2M (2nd listing (r97)): −0.1
Log2 fold-change of gene expression: HPRT1 (2nd listing (r98)): 0.9
Log2 fold-change of gene expression: RPL13A (2nd listing (r99)): 0.3
Log2 fold-change of gene expression: GADPH (2nd listing (r100)): −0.3
Log2 fold-change of gene expression: ACTB (2nd listing (r101)): −0.3
Log2 fold-change of gene expression: PLXDC1 (2nd listing (r104)): −5.7
Log2 fold-change of gene expression: 151516 (2nd listing (r139)): 0.9
Log2 fold-change of gene expression: Robo4 (2nd listing (r188)): 0.3
Log2 fold-change of gene expression: B2M (3rd listing (r145)): −1.4
Log2 fold-change of gene expression: HPRT1 (3rd listing (r146)): 0.2
Log2 fold-change of gene expression: RPL13A (3rd listing (r147)): 1.0
Log2 fold-change of gene expression: GADPH (3rd listing (r148)): 0.1
Log2 fold-change of gene expression: ACTB (3rd listing (r149)): −0.9
Log2 fold-change of gene expression: B2M (4th listing (r193)): −0.9
Log2 fold-change of gene expression: HPRT1 (4th listing (r194)): 2.0
Log2 fold-change of gene expression: RPL13A (4th listing (r195)): 0.4
Log2 fold-change of gene expression: GADPH (4th listing (r196)): −1.6
Log2 fold-change of gene expression: ACTB (4th listing (r197)): −1.6

Source: patent US9504729B2, “Antiangiogenic small molecules and methods of use” (The United States of America, as represented by the …, priority 2009, dated 2016)
